Reference: patent US11654413B2, “System and method for enhancing effectiveness of products generated from ionization, oxidation, photooxidation, photocatalytic, and photochemical reactions” (BIS SCIENCE LLC., priority 2021, dated 2023)
Where two headings read alike, the source gives them in different places.

Experiments:
[1] = tested on: Staphylococcus aureus ATCC 6538; details: contact time 5 minutes
From the text: The test substance was hydrogen peroxide at 1 ppm and at 0.3%, which was exposed or not exposed to photons with a wavelength from 0.001 nm-845 nm and applied to target, which included a biological medium inoculated with a viable bacteria concentration of Staphylococcus aureus ATCC 6538. Further, it may be appreciated that the control is the same microorganism.

E. coli = assay: FIG. 2 microbial reduction by photon enhanced solution; format: cell-based
microbial counts = details: 1 part per million, 5 minute contact time
From the text: In an example embodiment of a system for progressive reduction of the microbial count in ambient air, a room with 1,000,000 colony forming units (CFUs) is equipped with a system for performing the methods as disclosed herein. A small micron photon/phonon enhanced antimicrobial dry fog of an enhanced oxidizing agent is continuously administered into the ambient air through an existing HVAC system at a concentration of less than 1 part per million.

Compound | Average CFU/ML [1] [CFU/ML] | CFU/ML ([1]; Replicate 1) [CFU/ML] | CFU/ML ([1]; Replicate 2) [CFU/ML] | microbial (E. coli) reduction (E. coli) [%] | microbial reduction (microbial counts)
OO [.3% H2O2 no photon activation, hydrogen peroxide] | 4.05E+06 | 4.10E+06 | 4.00E+06 |  | 
OO [1 ppm H2O2 no photon activation, hydrogen peroxide] | 4.05E+06 | 4.10E+06 | 4.10E+06 |  | 
OO [hydrogen peroxide] |  |  |  | 0.0 | 
OO [standard hydrogen peroxide, hydrogen peroxide] |  |  |  |  | little or no microbial reduction
